For data set [1], the system named is HL-60/vinc (vincristine-resistant, P-gp overexpression). Briefly: Cytotoxicity, trypan blue exclusion assay, 24 h. The format is cell-based. The conditions noted are these: Homo sapiens, HL60/vinc. The text has this: (§1) Taking into consideration the high abundance of CK2 kinase in leukemia and lymphomas, the ability of selected CK2-HDAC dual inhibitors to circumvent MDR was investigated in human leukemia cells of HL-60 line and its doxorubicin-resistant (HL-60/adr, MRP-1 overexpression) and vincristine-resistant (HL-60/vinc, P-gp overexpression) sublines.
(§2) Statistical significance was set at P ≤ 0.05.

Data set [2] deals with HL-60/adr (doxorubicin-resistant, MRP-1 overexpression). Put plainly: Cytotoxicity, trypan blue exclusion assay, 24 h. Conditions: Homo sapiens, HL60/ADR. The format is cell-based.
Description: as §1, §2

For data set [3], the system named is leukemia cells of HL-60 line. Put plainly: Cytotoxicity, trypan blue exclusion assay, 24 h. The format is cell-based. Conditions: Homo sapiens.
Description: as §1, §2

Data set [4] deals with Jurkat T-leukemia cells. Put plainly: Cell cycle analysis, PI staining, FACS. The format is cell-based, human. Conditions: 30 µM, 24 h. The protocol: To reveal potential mechanisms of cell death induction, selected CK2-HDAC inhibitors were tested in a PI staining assay. […] However, this effect was masked for high doses of DMAT-hydroxamate derivatives (30 µM) due to their strong proapoptotic activity, leading to appearance of > 80% cells in pre-G1 phase (apoptotic). Thus, lower concentrations of 11b–d (2 µM and 5 µM) had to be addressed in order to observe their inhibitory effect on cell cycling. […] As G1/S cell arrest is considered a typical feature of HDAC inhibitors, including SAHA [79], the observed phenomenon is yet another confirmation of HDAC targeting by these novel dual inhibitors in cell culture.
Cell cycle of the analyzed cells was assessed according to protocol described by Walker et al.. After drug treatment, 2 × 10^6 cells were collected, pelleted by spinning at 1,000 rpm, 4 °C for five minutes, resuspended in 1 mL of cold PBS and fixed by adding drop by drop 4 mL of −20 °C absolute ethanol. On the next day, fixed cells were centrifuged again and cell pellets were resuspended in 1 mL of PBS. Then 100 µL of 200 µg/mL DNase-free, RNase A (Invitrogen, USA) was added to cell suspension and incubated at 37 °C for 30 minutes. After this 100 µL of 1 mg/mL propidium iodide was added to samples, which were incubated at room temperature for 5–10 min and then analyzed on FACScan flow cytometer (Becton Dickinson, USA). Cell cycle analysis was carried out using the Cytomation Summit Software v3.1 (Cytomation Inc., USA).

Data set [5] in a line: Cytotoxicity, trypan blue exclusion assay, 24 h (pseudonormal cells). The conditions noted are these: human, HEK293 embryonic kidney cells (pseudonormal).
Description: (§3) Walter Berger, Institute of Cancer Research, Vienna Medical University. Human embryonal kidney cells of HEK293 line were obtained from cell culture collection of R.E. Kavetsky Institute of Experimental Pathology, Oncology and Radiobiology, National Academy of Sciences of Ukraine (Kyiv, Ukraine).
(§4) Cells were seeded (5 × 10^5/mL for leukemia cells and 1 × 10^5/mL for carcinoma cells) into 24-well tissue culture plates (Greiner Bio-one, Frickenhausen, Germany) and were permitted to adhere and grow for 24 h before the experiment. Short-term (24 h) cytotoxic effect of antitumor drugs was studied under the Evolution 300 Trino microscope (Delta Optical, Nowe Osiny, Poland) after cell staining with trypan blue dye (0.1%).
(§5) Final concentration of DMSO in cell culture was 0.5% or less.
(§6) All experiments were performed in triplicate and repeated three times. Statistical analysis of data was conducted in GraphPad Prism 7.0 Software (GraphPad Software, Inc.) using Student’s t test. Statistical significance was set at P ≤ 0.05. Evaluation of LC50 values of each compound was done by built-in functions of GraphPad Prism (non-linear regression, curve fit, [Inhibitor] vs. normalized response - Variable slope).
The target in a further data set is T1, human recombinant CK2α (Homo sapiens, UniProt P68400).
T1 construct: GST; made in house; host or cells: bacteria
T1 sequence (P68400 whole entry): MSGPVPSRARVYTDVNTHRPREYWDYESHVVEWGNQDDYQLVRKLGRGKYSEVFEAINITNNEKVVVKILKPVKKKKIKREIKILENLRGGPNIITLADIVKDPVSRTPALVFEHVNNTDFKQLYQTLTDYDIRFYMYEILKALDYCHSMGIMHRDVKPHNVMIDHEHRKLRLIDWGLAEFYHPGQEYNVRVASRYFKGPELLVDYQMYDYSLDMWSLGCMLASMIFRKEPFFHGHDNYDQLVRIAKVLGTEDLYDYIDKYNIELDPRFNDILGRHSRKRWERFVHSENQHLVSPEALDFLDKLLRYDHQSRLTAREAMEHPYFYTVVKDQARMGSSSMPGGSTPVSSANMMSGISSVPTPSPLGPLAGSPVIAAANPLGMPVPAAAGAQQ
Put plainly: CK2 inhibition, radiometric method with peptide substrate […]. The format is biochemical. The conditions noted are these: radiometric method, 20 µM ATP; read-out: Inhibitory activity IC50 on CK2. The protocol: The activity towards human recombinant HDAC1 was tested using a fluorometric method. CK2 inhibitory activity was determined by a radiometric method, using a short peptide ([…]) as a substrate.
Recombinant human protein kinase GST-CK2 was produced in bacteria and purified as described elsewhere. […] The reaction buffer contained 20 µM [γ-32P] ATP (specific radioactivity 300–1000 cpm/pmol), 15 mM Mg^2+, 20 mM Tris–HCl pH 7.5, and 6 mM 2-mercaptoethanol. 10 µL of the assay mixture was spotted onto a square (1 cm/1 cm) of Whatman P81 paper and allowed to dry. Each square was immersed in cold 0.5% phosphoric acid, and washed three times during 10 min, allowed to dry and transferred into a vessel containing Opti-Phase liquid (scintillation solution) and radioactivity was quantified using a scintillation counter (MicroBeta, Perkin Elmer) by Cerenkov counting. All experiments were performed in triplicate. IC50 values were calculated using GraphPad Prism (version 4.0) software.

Data set [6] has as its system Jurkat T-leukemia cells. Briefly: Cytotoxicity, trypan blue exclusion assay, 24 h. The conditions noted are these: Homo sapiens.
Description: as §3, §4, §5, §6
Data set [7] deals with HCT-116 colon carcinoma cells. Briefly: Cytotoxicity, trypan blue exclusion assay, 24 h. The conditions noted are these: Homo sapiens.
Description: as §3, §4, §5, §6
The target of another data set is T2, human recombinant HDAC1 (Homo sapiens, UniProt Q13547).
T2 construct: purchased Enzo Life Sciences, Inc
T2 sequence (Q13547 whole entry): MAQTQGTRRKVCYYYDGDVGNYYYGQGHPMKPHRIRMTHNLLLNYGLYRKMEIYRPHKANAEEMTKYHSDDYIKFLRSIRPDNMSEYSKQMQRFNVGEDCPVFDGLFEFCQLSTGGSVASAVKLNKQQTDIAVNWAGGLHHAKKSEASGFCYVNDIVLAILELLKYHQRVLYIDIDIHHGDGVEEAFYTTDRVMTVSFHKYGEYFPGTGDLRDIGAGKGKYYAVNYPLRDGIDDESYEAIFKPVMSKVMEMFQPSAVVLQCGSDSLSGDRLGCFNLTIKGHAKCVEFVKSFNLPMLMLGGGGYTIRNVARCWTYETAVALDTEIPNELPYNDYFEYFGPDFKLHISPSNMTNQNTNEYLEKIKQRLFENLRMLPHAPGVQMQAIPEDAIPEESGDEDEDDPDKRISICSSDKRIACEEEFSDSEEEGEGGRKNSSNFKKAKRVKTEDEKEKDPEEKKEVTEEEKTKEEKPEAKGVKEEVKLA
Briefly: HDAC1 inhibition, fluorometric method (Enzo Fluorometric Drug Discovery Assay Kit). The format is biochemical. The conditions noted are these: read-out: Inhibitory activity IC50 on HDAC1. The protocol: The inhibitory activities of the synthesized compounds were determined against CK2 and HDAC1 and the IC50 values are collected in Table 1. The activity towards human recombinant HDAC1 was tested using a fluorometric method. CK2 inhibitory activity was determined by a radiometric method, using a short peptide ([…]) as a substrate.
15 µL of HDAC1 (0.4 µg/well) or HDAC6 (0.5 µg/well) were incubated at 37 °C for 30 minutes with 10 µL of inhibitor diluted in 5% DMSO and 25 µL of fluorogenic substrate (0.05 µL/well of 5 mM solution). Reactions were stopped with the developer and trichostatin A, diluted in buffer without BSA, and the plate was incubated at 30 °C for 45 min, followed by measuring the fluorescence (Ex. 360 nm, Em. 450 nm, Fluoroskan, Thermo Scientific).

The mark [8] stands for this setting: Table 2, trypan blue, 24 h, M ± SD, read-out: LC50 Values of Compounds for Cell Line, HL-60/vinc.
The mark [9] stands for this setting: supplement Table 4S, M±SD, read-out: LC50 values of compounds for cell line, HL-60/vinc.
[10] abbreviates: Table 2, trypan blue, 24 h, M ± SD, read-out: LC50 Values of Compounds for Cell Line, HL-60/adr.
Where [11] appears, read: supplement Table 4S, M±SD, read-out: LC50 values of compounds for cell line, HL-60/adr.
Where [12] appears, read: supplement Table 4S, M±SD, read-out: LC50 values of compounds for cell line, HL-60.
[13] abbreviates: LC50 Values of Compounds for Cell Line, HEK293, Table 2, trypan blue, 24 h, M ± SD.
Setting [14] is: LC50 values of compounds for cell line, HEK293, supplement Table 4S, M±SD.
Setting [15] is: 24 h, read-out: LC50 Values of Compounds for Cell Line, Jurkat.
[16] abbreviates: read-out: LC50 values of compounds for cell line, Jurkat.
Where [17] appears, read: HCT-116, 24 h, read-out: LC50 Values of Compounds for Cell Line, HCT-116.
The mark [18] stands for this setting: Table 2, trypan blue, 24 h, M ± SD, read-out: LC50 Values of Compounds for Cell Line, HL-60.

Read-outs that look alike come from different tables or passages of the source. Where only a bound is given, the exact number is not on record here.

These results are taken from paper PMC7180456, “Multitarget Anticancer Agents Based on Histone Deacetylase and Protein Kinase CK2 Inhibitors” (Molecules, 2020).

`CN(C)c1nc2c(Br)c(Br)c(Br)c(Br)c2n1Cc1ccc(C(=O)NO)cc1` [Compound 19, N-Hydroxy-4-((4,5,6,7-tetrabromo-2-(dimethylamino)-1H-benzo[d]imidazol-1-yl)methyl)benzamide]: the CC50 in [1] (setting [8]) was 21.7 ± 3.39 µM; in [1] (setting [9]), 26.6 µM; in data set [2] (setting [10]), 32.3 ± 5.32 µM; in data set [2] (setting [11]), greater than 30 µM; in data set [3] (setting [12]), greater than 30 µM; in the data set with Jurkat T-leukemia cells [6] (setting [15]), 24.9 ± 3.8 µM. The CC50 came out at 21.8 µM in the data set on Jurkat T-leukemia cells [6] (setting [16]) and 11.3 ± 1.01 µM in data set [7] (setting [17]). In the data set on Jurkat T-leukemia cells [4], the “cells in pre-G1 phase (apoptotic)” value is “increased insignificantly”. Besides, the CC50 at 24 h in data set [5] (setting [13]) came out at 33.4 ± 11.8 µM; in data set [5] (setting [14]) it was 24.5 µM. Moreover, the concentration for half-maximal inhibition (IC50) on human recombinant CK2α was determined as 7.15 µM; on human recombinant HDAC1 it was 9.45 µM.

Regarding `O=C(NO)c1ccc(Cn2nc3c(Br)c(Br)c(Br)c(Br)c3n2)cc1` [Compound 15a, N-Hydroxy-4-((tetrabromo-2H-benzo[d][1,2,3]triazol-2-yl)methyl)benzamide], the CC50 was 36.6 ± 4.74 µM in [1] (setting [8]); greater than 30 µM in [1] (setting [9]); 32.4 ± 3.44 µM in data set [2] (setting [10]); greater than 30 µM in data set [2] (setting [11]); 34.4 ± 7.89 µM in [3] (setting [18]); greater than 30 µM in data set [3] (setting [12]). In addition, the figures for the CC50 (with Jurkat T-leukemia cells [6] (setting [15]); with Jurkat T-leukemia cells [6] (setting [16]); in data set [7] (setting [17])) were 43.6 ± 16.7 µM, greater than 30 µM and 8.67 ± 1.02 µM, respectively. For the same compound, the “cells in pre-G1 phase (apoptotic)” value in the data set on Jurkat T-leukemia cells [4] was “increased insignificantly”. In addition, the CC50 at 24 h was 33.7 ± 7.52 µM in [5] (setting [13]) and greater than 30 µM in data set [5] (setting [14]). Also, the 50% inhibitory concentration (IC50) at human recombinant CK2α was determined as 15 µM; on human recombinant HDAC1, 8.5 µM.

On to `CN(C)c1nc2c(Br)c(Br)c(Br)c(Br)c2n1CCc1cn(CCC(=O)NO)nn1` [Compound 7c, N-Hydroxy-3-(4-(2-(4,5,6,7-tetrabromo-2-(dimethylamino)-1H-benzo[d]imidazol-1-yl)ethyl)-1H-1,2,3-triazol-1-yl)propanamide], for which the CC50 turned out to be 49.5 ± 9.47 µM in data set [1] (setting [8]); 17.6 µM in data set [1] (setting [9]); 18.6 ± 2.09 µM in data set [2] (setting [10]); 16.2 µM in data set [2] (setting [11]); 24 ± 8.66 µM in data set [3] (setting [18]); 7.67 µM in data set [3] (setting [12]). In addition, the CC50 worked out at 16.5 ± 2.33 µM with Jurkat T-leukemia cells [6] (setting [15]); 10.7 µM in the data set with Jurkat T-leukemia cells [6] (setting [16]); 16.9 ± 3.9 µM in data set [7] (setting [17]); 4.22 µM in data set [7] (HCT-116, read-out: LC50 values of compounds for cell line, HCT-116). Moreover, the “cells in pre-G1 phase (apoptotic)” value in the data set on Jurkat T-leukemia cells [4] is given as “increased insignificantly”. Moreover, the values for the CC50 at 24 h in [5] (setting [13]) and in data set [5] (setting [14]) were 42.7 ± 8.65 µM and 23.3 µM, respectively. In addition, the IC50 was 12.5 µM on human recombinant CK2α and 13.3 µM at human recombinant HDAC1.
